Laboratory results from PMC10089316, “Adeno-Associated virus 8 delivers an immunomodulatory peptide to mouse liver more efficiently than to rat liver” (PLOS ONE, 2023).

Key:
Kv1.3 = conditions: cited from earlier work
Source text: (§1) The voltage-gated Kv1.3 potassium channel has gained interest as a therapeutic target for obesity, as mice lacking Kv1.3 or treated with a Kv1.3 blocker are protected from high-fat diet (HFD)-induced obesity. Kv1.3 is also a target for autoimmune diseases, as […] (CCR7)^- effector memory T (TEM) lymphocytes express high levels of Kv1.3 upon activation and blocking of Kv1.3 inhibits their function. […] However, S ...

[1] = tested on: other Kv1.x channels and the KCa3.1 channel; conditions: cited from earlier work
Source text: as §1

[2] = cited from earlier work
Source text: All constructs contain both ShK-235 and EGFP.

mKv1.3 channels = target: T1, mKv1.3 channels (Mus musculus, UniProt P16390); assay: whole-cell patch-clamp block of mKv1.3 by synthetic ShK-235; type: cell-based; conditions: Port-a-Patch, L929 fibroblasts stably expressing mKv1.3, 200 ms pulses −80 to 40 mV, 20–25°C, pH 7.4, N = 3 cells per concentration, mean ± SEM, read-out: IC50 for Kv1.3 block
T1 construct: expressed in transfected cells
Procedure: Mouse L929 fibroblasts stably expressing mKv1.3 channels were a kind gift from Dr. Chandy (Nanyang Technological University, Singapore). They were maintained in Dulbecco’s modified Eagle’s medium (DMEM) supplemented with 10% heat-inactivated fetal bovine serum (FBS), 4 mM L-glutamine, 1 mM sodium pyruvate, and 500 μg/mL G418 (Calbiochem/EMD Millipore, Billerica, MA) and cultured to 60~70% confluence.
Patch clamp assays were conducted at room temperature (20–25°C) in the whole-cell configuration using a Port-a-Patch system (Nanion Technologies, Livingston, NJ) connected to a HEKA EPC10-USB amplifier controlled with the PatchMaster software (HEKA, Germany). The external solution contained 1 mM MgCl2, 160 mM NaCl, 4.5 mM KCl, 2 mM CaCl2, and 10 mM Hepes; pH was adjusted to 7.4 with NaOH. […]
The stock of synthetic ShK-235, the supernatants of transfected HEK293T cells, and the rodent serum samples were diluted in the external solution immediately before use and tested in triplicates without any further processing. Peak Kv1.3 currents were recorded before addition of the samples and after reaching steady-state block and results were analyzed using IGOR Pro software (WaveMetrics, Portland, OR) and the IC50 of channel block was calculated by nonlinear regression using Prism software (GraphPad Software, San Diego, CA).

T1 sequence (P16390 whole entry): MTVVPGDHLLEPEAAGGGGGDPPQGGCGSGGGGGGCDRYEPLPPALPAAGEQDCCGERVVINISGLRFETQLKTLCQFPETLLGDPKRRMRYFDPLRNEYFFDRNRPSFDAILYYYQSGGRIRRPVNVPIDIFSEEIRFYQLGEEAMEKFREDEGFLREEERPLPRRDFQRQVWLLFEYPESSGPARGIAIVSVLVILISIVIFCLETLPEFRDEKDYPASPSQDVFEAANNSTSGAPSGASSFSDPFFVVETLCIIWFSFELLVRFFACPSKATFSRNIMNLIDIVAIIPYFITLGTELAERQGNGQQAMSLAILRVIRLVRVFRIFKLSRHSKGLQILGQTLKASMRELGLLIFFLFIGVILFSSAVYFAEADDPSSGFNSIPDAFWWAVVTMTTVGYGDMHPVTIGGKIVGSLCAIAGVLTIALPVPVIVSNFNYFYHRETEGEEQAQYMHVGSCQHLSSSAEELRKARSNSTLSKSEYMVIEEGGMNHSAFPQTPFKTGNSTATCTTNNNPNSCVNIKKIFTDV

In the case of “ShK: small peptide produced by the sea anemone Stichodactyla helianthus, one of the most potent blockers of Kv1.3 (RSCIDTIPKSRCTAFKCKHSIKYRLSFCRKTCGTCA)”, the IC50 (Kv1.3) is listed as 0.01 nM and the “block of other Kv1.x channels and KCa3.1” value [1] is listed as “in the pM to low nM range”.
In the case of `CC[C@H](C)[C@@H]1NC(=O)[C@H](CO)NC(=O)[C@H](Cc2c[nH]cn2)NC(=O)[C@H](CCCCN)NC(=O)[C@@H]2CSSC[C@@H]3NC(=O)[C@H]([C@@H](C)O)NC(=O)[C@H](CCCCN)NC(=O)[C@H](CCCNC(=N)N)NC(=O)[C@H](CSSC[C@H](NC(=O)[C@H](CCCNC(=N)N)NC(=O)[C@H](CO)NC(=O)[C@H](CCCCN)NC(=O)[C@@H]4CCCN4C(=O)[C@H]([C@@H](C)CC)NC(=O)[C@H]([C@@H](C)O)NC(=O)[C@H](CC(=O)O)NC(=O)[C@H]([C@@H](C)CC)NC(=O)[C@@H](NC(=O)[C@H](CO)NC(=O)[C@@H](N)CCCNC(=N)N)CSSC[C@@H](C(=O)N[C@@H](C)C(=O)O)NC(=O)[C@H]([C@@H](C)O)NC(=O)CNC3=O)C(=O)N[C@@H]([C@@H](C)O)C(=O)N[C@@H](C)C(=O)N[C@@H](Cc3ccccc3)C(=O)N[C@@H](CCCCN)C(=O)N2)NC(=O)[C@H](Cc2ccccc2)NC(=O)[C@H](CO)NC(=O)[C@H](CC(C)C)NC(=O)[C@H](CCCNC(=N)N)NC(=O)[C@H](Cc2ccc(O)cc2)NC(=O)[C@H](CCCCN)NC1=O` [ShK-235], the immunogenicity [2] is given as “not immunogenic” and the IC50 (mKv1.3 channels) is given as 0.0709 ± 0.0219 nM.
